Laboratory results as given in US20260102344A1, “METERED DOSE INHALERS AND SUSPENSION COMPOSITIONS” (Kindeva Drug Delivery L.P., priority 2021, published 2026).
≈ marks a conversion by molar mass, not a printed value. Blank lines part the entries; values can stand above or below the molecule they belong to.

Tests used:
Type in all cases: physicochemical
[1] = Aerodynamic particle size measurement, fluticasone propionate in HFO-1234ze(E); details: HFO-1234ze(E) suspension 2 mg/mL, 50-μL valve, 0.5 mm actuator
Experimental: Suspensions of micronized fluticasone propionate were prepared in HFO-1234ze(E). The nominal concentration of fluticasone propionate in each suspension was 2 mg/mL. A first suspension included 0% ethanol. A second suspension included 2% ethanol by weight. A third suspension included 5% ethanol by weight. A fourth suspension included 10% ethanol by weight.
Each suspension was filled into an FEP-coated canister and fitted with a 50-μL valve. The suspensions were sonicated for 10 minutes to disperse the fluticasone propionate. The suspensions were tested using a KINDEVA actuator with a 0.5 mm exit orifice diameter.
For each suspension, FPM, median mass aerodynamic diameter (MMAD), FPF, metered dose (ex-valve), and delivered dose (ex-actuator) were measured.

[2] = Saturated solubility of fluticasone propionate in HFO-1234ze(E) with ethanol; details: saturated solubility in HFO-1234ze(E), no additional excipients; for solubility: HFO-1234ze(E) propellant with ethanol, organic solvent or mixture, thermodynamic from solid
Experimental: The solubility of fluticasone propionate in each suspension was measured by content assay following filtration of the excess non-dissolved drug.

[3] = Fine particle fraction by Fast Screening Impactor (FSI), fluticasone propionate in HFO-1234ze(E) without ethanol; details: HFO-1234ze(E) suspension 2 mg/mL, no ethanol
Experimental: A suspension of micronized fluticasone propionate was prepared in HFO-1234ze(E) with no additional excipients, including ethanol. Each suspension included an amount of fluticasone propionate (2 mg/mL) to provide a nominal dose of […]. Each suspension was filled into FEP coated canisters and crimped with a metering valve and tested with a KINDEVA actuator.
When tested with KINDEVA actuators with exit orifice diameters of 0.3 mm, 0.22 mm, and 0.18 mm using a Fast Screening Impactor (FSI), it was observed that corresponding FPF of 35%, 43%, and 50% were achieved.

[4] = Mometasone solubility in HFO-1234ze(E) (Example 10)
[5] = Saturated solubility, mometasone furoate in HFO-1234ze(E) (Example 11)
Experimental: Suspensions of micronized mometasone furoate were prepared in HFO-1234ze(E). […]. A second suspension included 0.5% ethanol by weight. A third suspension included 1% ethanol by weight. A fourth suspension included 2% ethanol by weight.
Devices were prepared by weighing mometasone furoate in FEP coated canisters fitted with a 50-μL valve, a Mk6s actuator, and dose counter. The valve was crimped on, and the propellant was pressure filled through the valve. The units were sonicated for 10 minutes to fully disperse the mometasone furoate. Through life dosing was tested for each suspension 3 units with the Mk6s actuator having 0.5-mm exit orifice and 0.8-mm jet length. Saturated solubility was also measured for each suspension. The results are shown in Example 10.

[6] = Delivered dose and fine particle mass, salbutamol sulfate in HFO-1234ze(E) with 5.0% or 15% ethanol; details: HFO-1234ze(E) suspension 1.91 mg/mL, 63-μL APTAR, mean of triplicate
Experimental: Each suspension was filled into FEP coated canisters, crimped with a valve, and coupled to […] actuator for testing. Fine particle mass and delivered dose were measured for each suspension.

[7] = Delivered dose and particle size measurement, salbutamol sulfate in HFO-1234ze(E); details: HFO-1234ze(E) suspension 1.91 mg/mL, nominal 100 μg/actuation, 63-μL valve, 0.4 mm actuator
Experimental: A first suspension included no ethanol. […] A fifth suspension included 15% ethanol by weight. […] Each suspension was filled into FEP coated canisters, crimped with a 63-μL valve and tested with a […] actuator having an exit orifice diameter of 0.4 mm for testing. The fine particle mass (FPM), median mass aerodynamic diameter (MMAD), fine particle fraction (FPF), metered dose (ex-valve), and delivered dose (ex-act) were measured for each suspension.

- FPF ([1]; ethanol 0% by weight): 60.6%
- FPM ([1]; ethanol 0% by weight): 5.3 μg/actuation
- MMAD ([1]; ethanol 0% by weight): 5.0 μm
- FPF ([1]; ethanol 2% by weight): 43.8%
- FPM ([1]; ethanol 2% by weight): 30.0 μg/actuation
- MMAD ([1]; ethanol 2% by weight): 5.4 μm
- FPF ([1]; ethanol 5% by weight): 28.9%
- FPM ([1]; ethanol 5% by weight): 27.9 μg/actuation
- MMAD ([1]; ethanol 5% by weight): 2.4 μm
- FPF ([1]; ethanol 10% by weight): 19.6%
- FPM ([1]; ethanol 10% by weight): 18.7 μg/actuation
- MMAD ([1]; ethanol 10% by weight): 2.1 μm
- solubility ([2]; ethanol 0% by weight): 3.2 µg/mL (≈ 6.39 µM)
- solubility ([2]; ethanol 2% by weight): 30.3 µg/mL (≈ 60.5 µM)
- solubility ([2]; ethanol 5% by weight): 135 µg/mL (≈ 269 µM)
- Mean fluticasone propionate solubility ([2]; ethanol 1% by weight): 12.4 µg/mL
- Mean fluticasone propionate solubility ([2]; ethanol 10% by weight): 367.5 µg/mL
- FPF ([3]; actuator exit orifice 0.18 mm): 50%
- FPF ([3]; actuator exit orifice 0.22 mm): 43%
- FPF ([3]; actuator exit orifice 0.3 mm): 35%
Molecule: CCC(=O)O[C@]1(C(=O)SCF)[C@H](C)C[C@H]2[C@@H]3C[C@H](F)C4=CC(=O)C=C[C@]4(C)[C@@]3(F)[C@@H](O)C[C@@]21C [fluticasone propionate]

- Mean mometasone solubility ([4]; ethanol 0% by weight): 0.8 µg/mL
- Mean mometasone solubility ([4]; ethanol 1% by weight): 7.6 µg/mL
- Saturated solubility ([5]; ethanol 0%): 0.8 µg/mL
- Saturated solubility ([5]; ethanol 2%): 7.6 µg/mL
Molecule: C[C@@H]1C[C@H]2[C@@H]3CCC4=CC(=O)C=C[C@]4(C)[C@@]3(Cl)[C@@H](O)C[C@]2(C)[C@@]1(OC(=O)c1ccco1)C(=O)CCl [mometasone furoate]

- Fine particle fraction ([6]; ethanol 5.0%): 38%
- Fine particle fraction ([6]; ethanol 15%): 20%
- FPF (fine particle fraction) ([7]; ethanol 0% by weight): 57.5%
- FPM (fine particle mass) ([7]; ethanol 0% by weight): 45.3 μg/act
- MMAD (median mass aerodynamic diameter) ([7]; ethanol 0% by weight): 1.9 μm
- FPF (fine particle fraction) ([7]; ethanol 2% by weight): 48.5%
- FPM (fine particle mass) ([7]; ethanol 2% by weight): 45.9 μg/act
- MMAD (median mass aerodynamic diameter) ([7]; ethanol 2% by weight): 2.0 μm
- FPF (fine particle fraction) ([7]; ethanol 5% by weight): 39.1%
- FPM (fine particle mass) ([7]; ethanol 5% by weight): 36.8 μg/act
- MMAD (median mass aerodynamic diameter) ([7]; ethanol 5% by weight): 1.9 μm
- FPF (fine particle fraction) ([7]; ethanol 10% by weight): 27.6%
- FPM (fine particle mass) ([7]; ethanol 10% by weight): 25.4 μg/act
- MMAD (median mass aerodynamic diameter) ([7]; ethanol 10% by weight): 2.0 μm
- FPF (fine particle fraction) ([7]; ethanol 15% by weight): 19.6%
- FPM (fine particle mass) ([7]; ethanol 15% by weight): 18.5 μg/act
- MMAD (median mass aerodynamic diameter) ([7]; ethanol 15% by weight): 2.0 μm
Molecule: salbutamol sulfate
